pIC50: −log10 of the molar value.
target: T1, human recombinant H-PGDS (Homo sapiens, UniProt O60760); test: Fluorescence intensity h-PGDS TBA enzyme assay (PGH2 depletion, MDA/TBA fluorescence); type: biochemical; conditions: 1:175,000 human recombinant H-PGDS, 42 second reaction, 3-fold serial dilutions, highest concentration typically 1 μM
In short: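 Recombinant human H-PGDS preincubated with inhibitor 10 min at room temperature in pH 8.0 Tris, MgCl2, IgG, 2.5 mM glutathione, 0.5% DMSO. Reaction with 5.0 μM PGH2 stopped at 42 s with FeCl2/citric acid; MDA–TBA fluorescence (ex 530/em 565 nm) read after 70° C. IC50 by 4-parameter fit, 11 concentrations.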

T1 sequence (O60760 whole entry): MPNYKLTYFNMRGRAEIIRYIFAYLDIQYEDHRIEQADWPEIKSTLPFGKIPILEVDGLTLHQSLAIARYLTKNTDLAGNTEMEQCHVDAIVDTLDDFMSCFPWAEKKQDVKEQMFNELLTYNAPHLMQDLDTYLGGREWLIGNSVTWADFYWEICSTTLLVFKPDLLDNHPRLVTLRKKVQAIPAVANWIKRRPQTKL

Row | pIC50 | Structure (SMILES)
1 | 7.86 | CN1CCN(C(=O)C[C@H]2CC[C@@H](NC(=O)c3ccc(-c4cccc(F)c4)nc3)CC2)CC1 [Example 274, 6-(3-Fluorophenyl)-N-{cis-4-[2-(-methylpiperazin-1-yl)-2-oxoethyl]cyclohexyl}nicotinamide]
2 | 7.09 | CC(C)(O)[C@H]1CC[C@@H](NC(=O)c2ccc(-c3cccc(F)c3)nc2)CC1 [Example 275, 6-(3-Fluorophenyl)-N-[cis-4-(1-hydroxy-1-methylethyl)cyclohexyl]nicotinamide]

target: T1, human recombinant H-PGDS; test: Slightly modified fluorescence intensity h-PGDS TBA enzyme assay (1:40,000 enzyme, 40 second reaction, 1/2 log dilutions, top concentration typically 10 μM); type: biochemical; conditions: slightly modified assay: 1:40,000 human recombinant H-PGDS
Experimental: Fluoresecence Intensity h-PGDSTBA Enzyme Assay
Prostaglandin D Synthase (PGDS) converts the substrate prostaglandin H2 (PGH2) to prostaglandin D2. The depletion of PGH2 was measured via an Fe(II) reduction of the remaining PGH2 to malondialdehyde (MDA) and 12-HHT. The enzyme assay is based on the quantitative formation of a fluorescent complex from the non-fluorescent compounds MDA and 2-thiobarbituric acid (TBA), substantially as described in U.S. patent application publication US-2004/152148 by Lombardt.
Examples 6-8, 11a-16, 23, 26-47, 49-103, 105-113, 115-118 and 126-128 were tested in a slightly modified assay: The enzyme assay (30 μls during biological process) contained 100 mM Trizma pH 8.0, 100 μM MgCl2, 0.1 mg/ml IgG Rabbit serum, 5.0 μM PGH2 (Cayman; ethanol solution, #17020), 2.5 mM L-Glutathione (Sigma; reduced form #G4251), 1:40,000 human recombinant H-PGDS (from 1 mg/ml), 0.5% DMSO and inhibitor (varying concentration). 3 μls of diluted inhibitor (dissolved in DMSO) was plated into a 384-well assay plate followed by a 24 μl addition of an enzyme solution containing h-PGDS, Trizma, MgCl2, IgG and L-Glutathione. After pre-incubation of inhibitor and enzyme solution for 10 minutes at room temperature, the reaction was initiated with a 3 μl addition of substrate solution in 10 mM HCl. The reaction was terminated after 40 second by the addition of 3 μl stop buffer containing FeCl2 and citric acid. After addition of 45 μls of TBA plates were heated for one hour in a 70° C. oven. Plates were cooled at room temperature overnight and read on a plate reader the next day with excitation @ 530 nm and emission @ 560 nm. IC50' s of inhibitors were calculated with a 4-parameter fit using 11 inhibitor concentrations in duplicate with ½ log serial dilutions. Controls on each plate included no inhibitor (zero % effect) and an inhibitor 500-fold in excess of its' IC50 (100% effect). The highest inhibitor concentration tested was typically 10 μM.

Row | pIC50 | Structure (SMILES)
3 | 7.19 | N[C@H]1CCCC[C@@H]1NC(=O)[C@@H]1CCC[C@H](NC(=O)c2ccc(-c3cccc(F)c3)nc2)C1 (mixture of isomers) [Example 64B, N-[cis-3-{[(1S,2S)-2-aminocyclohexyl]carbamoyl}cyclohexyl]-6-(3-fluorophenyl)nicotinamide]
4 | 7.33 | N[C@@H]1CCCC[C@H]1NC(=O)[C@@H]1CCC[C@H](NC(=O)c2ccc(-c3cccc(F)c3)nc2)C1 (mixture of isomers) [Example 64C, N-[cis-3-{[(1R,2R)-2-aminocyclohexyl]carbamoyl}cyclohexyl]-6-(3-fluorophenyl)nicotinamide]
5 | 7.76 | O=C(N[C@H]1CCC[C@@H](C(=O)N[C@@H]2CCNC2=O)C1)c1ccc(-c2cccc(F)c2)nc1 (mixture of isomers) [Example 64G, 6-(3-fluorophenyl)-N-[cis-3-{[(3R)-2-oxopyrrolidin-3-yl]carbamoyl}cyclohexyl]nicotinamide]
6 | 7.89 | O=C(N[C@H]1CCC[C@@H](C(=O)N[C@H]2CCNC2=O)C1)c1ccc(-c2cccc(F)c2)nc1 (mixture of isomers) [Example 64H, 6-(3-fluorophenyl)-N-[cis-3-{[(3S)-2-oxopyrrolidin-3-yl]carbamoyl}cyclohexyl]nicotinamide]
7 | 7.96 | O=C(N[C@H]1CCC[C@@H](C(=O)N[C@@H]2CCOC2)C1)c1ccc(-c2cccc(F)c2)nc1 (mixture of isomers) [Example 64K, 6-(3-fluorophenyl)-N-{cis-3-[(3R)-tetrahydrofuran-3-ylcarbamoyl]cyclohexyl}nicotinamide]
8 | 6.59 | N[C@H]1CCCC[C@H]1NC(=O)[C@@H]1CCC[C@H](NC(=O)c2ccc(-c3cccc(F)c3)nc2)C1 (mixture of isomers) [Example 64L, N-[(1S,3R)-3-{[cis-2-aminocyclohexyl]carbamoyl}cyclohexyl]-6-(3-fluorophenyl)nicotinamide]
9 | 8.14 | CCN1CCN(C(=O)[C@H]2CCC[C@@H](NC(=O)c3ccc(-c4cccc(F)c4)nc3)C2)CC1 (racemic) [Example 41, N-{cis-3-[(4-Ethylpiperazin-1-yl)carbonyl]cyclohexyl}-6-(3-fluorophenyl)nicotinamide]
10 | 7.76 | O=C(N[C@@H]1CCCC[C@@H]1O)c1ccc(-c2cccc(F)c2)nc1 (relative stereo) [Example 23]
11 | 7.74 | O=C(N[C@@H]1CCC[C@H](O)C1)c1ccc(-c2cccc(F)c2)nc1 (relative stereo) [Example 26, 6-(3-Fluorophenyl)-N-[cis-3-hydroxycyclohexyl]nicotinamide]
12 | 7.85 | O=C(N[C@@H]1CCC[C@H](C(=O)O)C1)c1ccc(-c2cccc(F)c2)nc1 (relative stereo) [Example 27, cis-3-({[6-(3-Fluorophenyl)pyridin-3-yl]carbonyl}amino)cyclohexanecarboxylic acid]
13 | 8.43 | O=C(N[C@H]1CCC[C@@H](C(=O)N2CCC(O)CC2)C1)c1ccc(-c2cccc(F)c2)nc1 (relative stereo) [Example 28, 6-(3-Fluorophenyl)-N-{cis-3-[(4-hydroxypiperidin-1-yl)carbonyl]cyclohexyl}nicotinamide]
14 | 8.30 | O=C(N[C@H]1CCC[C@@H](C(=O)N2CCCC2)C1)c1ccc(-c2cccc(F)c2)nc1 (relative stereo) [Example 29, 6-(3-Fluorophenyl)-N-[cis-3-(pyrrolidin-1-ylcarbonyl)cyclohexyl]nicotinamide]
15 | 7.59 | O=C(N[C@H]1CCC[C@@H](C(=O)NCc2ccccc2)C1)c1ccc(-c2cccc(F)c2)nc1 (relative stereo) [Example 30, N-[cis-3-(Benzylcarbamoyl)cyclohexyl]-6-(3-fluorophenyl)nicotinamide]
16 | 7.97 | CN(C)C(=O)[C@H]1CCC[C@@H](NC(=O)c2ccc(-c3cccc(F)c3)nc2)C1 (relative stereo) [Example 31, N-[cis-3-(Dimethyicarbamoyl)cyclohexyl]-6-(3-fluorophenyl)nicotinamide]
17 | 7.42 | CCN(C)C(=O)[C@@H]1CCC[C@H](NC(=O)c2ccc(-c3cccc(F)c3)nc2)C1 (relative stereo) [Example 32, N-{cis-3-[Ethyl(methyl)carbamoyl]cyclohexyl}-6-(3-fluorophenyl)nicotinamide]
18 | 8.00 | O=C(N[C@H]1CCC[C@@H](C(=O)NC2CCCC2)C1)c1ccc(-c2cccc(F)c2)nc1 (relative stereo) [Example 33, N-[cis-3-(Cyclopentylcarbamoyl)cyclohexyl]-6-(3-fluorophenyl)nicotinamide]
19 | 8.08 | CC(C)NC(=O)[C@@H]1CCC[C@H](NC(=O)c2ccc(-c3cccc(F)c3)nc2)C1 (relative stereo) [Example 34, 6-(3-Fluorophenyl)-N-[cis-3-(isopropylcarbamoyl)cyclohexyl]nicotinamide]
20 | 8.08 | CN1CCN(C(=O)[C@@H]2CCC[C@H](NC(=O)c3ccc(-c4cccc(F)c4)nc3)C2)CC1 (relative stereo) [Example 35, 6-(3-Fluorophenyl)-N-{cis-3-[(4-methylpiperazin-1-yl)carbonyl]cyclohexyl}nicotinamide]
21 | 8.08 | O=C(N[C@H]1CCC[C@@H](C(=O)N2CCOCC2)C1)c1ccc(-c2cccc(F)c2)nc1 (relative stereo) [Example 36, 6-(3-Fluorophenyl)-N-[cis-3-(morpholin-4-ylcarbonyl)cyclohexyl]nicotinamide]
22 | 7.60 | CNCCN(C)C(=O)[C@@H]1CCC[C@H](NC(=O)c2ccc(-c3cccc(F)c3)nc2)C1 (relative stereo) [Example 37, 6-(3-Fluorophenyl)-N-[cis-3-{methyl[2-(methylamino)ethyl]carbamoyl}cyclohexyl]nicotinamide]
23 | 8.07 | CC(C)(C)NC(=O)[C@@H]1CCC[C@H](NC(=O)c2ccc(-c3cccc(F)c3)nc2)C1 (relative stereo) [Example 38, N-[cis-3-(tert-Butylcarbamoyl)cyclohexyl]-6-(3-fluorophenyl)nicotinamide]
24 | 8.37 | CN(Cc1ccccc1)C(=O)[C@@H]1CCC[C@H](NC(=O)c2ccc(-c3cccc(F)c3)nc2)C1 (relative stereo) [Example 39, N-{cis-3-[Benzyl(methyl)carbamoyl]cyclohexyl}-6-(3-fluorophenyl)nicotinamide]
25 | 8.05 | CCN(CC)C(=O)[C@@H]1CCC[C@H](NC(=O)c2ccc(-c3cccc(F)c3)nc2)C1 (relative stereo) [Example 40, N-[cis-3-(Diethylcarbamoyl)cyclohexyl]-6-(3-fluorophenyl)nicotinamide]
26 | 7.99 | O=C(N[C@H]1CCC[C@@H](C(=O)N2CCNCC2)C1)c1ccc(-c2cccc(F)c2)nc1 (relative stereo) [Example 42, 6-(3-Fluorophenyl)-N-[cis-3-(piperazin-1-ylcarbonyl)cyclohexyl]nicotinamide]
27 | 7.84 | O=C(N[C@H]1CCC[C@@H](C(=O)N2CCN(C3CC3)CC2)C1)c1ccc(-c2cccc(F)c2)nc1 (relative stereo) [Example 43, N-{cis-3-[(4-Cyclopropylpiperazin-1-yl)carbonyl]cyclohexyl}-6-(3-fluorophenyl)nicotinamide]
28 | 8.03 | O=C(N[C@H]1CCC[C@@H](C(=O)NCCCO)C1)c1ccc(-c2cccc(F)c2)nc1 (relative stereo) [Example 64E, 6-(3-fluorophenyl)-N-{cis-3-[(3-hydroxypropyl)carbamoyl]cyclohexyl}nicotinamide]
29 | 7.77 | CN(C)CCCNC(=O)[C@@H]1CCC[C@H](NC(=O)c2ccc(-c3cccc(F)c3)nc2)C1 (relative stereo) [Example 64F, N-[cis-3-{[3-(dimethylamino)propyl]carbamoyl}cyclohexyl]-6-(3-fluorophenyl)nicotinamide]

— patent publication US20100173888A1 (Pfizer Inc, priority 2008, published 2010)
